Test results: BindingDB's records for doi:10.1007/s10822-022-00478-x (Roche Innovation Center Basel, F. Hoffmann-La Roche Ltd., 2022)

Biological target: cAMP and cAMP-inhibited cGMP 3',5'-cyclic phosphodiesterase 10A (Homo sapiens, UniProt Q9Y233)
Assay: PDE10A assay
Method in brief: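 Scintillation proximity readout of [3H]cGMP hydrolysis (50 nM final substrate, 15 min) by 2 ng/well human PDE10A after 15 min compound preincubation at RT, pH 7.5 with MgCl2. Four-parameter logistic fit gave IC50, reported as pIC50.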

| IC50 [nM] | Compound |
| --- | --- |
| 12 | COC[C@H]1CCCN1c1nc(CCc2nc3c(C)ncc(C)n3n2)n(C)n1 [Roche-Dataset for PDE10A, Compound 249] |
| 182 | Cn1nnc(C(=O)N2CCC2)c1C(=O)Nc1ccn2nc(-c3ccccc3)nc2c1 [Roche-Dataset for PDE10A, Compound 250] |
| 2.2 | CCOc1ccccc1-c1cn2c(n1)C[C@H](NC(=O)c1c(C(=O)N3CCC3)cnn1C)CC2 [Roche-Dataset for PDE10A, Compound 251] |
| 1060 | CC(C)NC(=O)c1nc(C2CC2)cnc1OCc1nc(-c2ccccc2)cn1C [Roche-Dataset for PDE10A, Compound 252] |
| 44 | Cn1ncc(C(=O)N2CCC2)c1C(=O)N[C@@H]1CCn2cc(-c3ccccc3OC(F)(F)F)nc2C1 [Roche-Dataset for PDE10A, Compound 253] |
| 9.25 | Cc1nc2ccccc2nc1CCc1ncc(-c2ccccc2)[nH]1 [Roche-Dataset for PDE10A, Compound 254] |
| 14 | CCn1nc(C)cc1C(=O)Nc1cc2nc(-c3ccccc3)[nH]c2cc1C(=O)NCCOC [Roche-Dataset for PDE10A, Compound 256] |
| 6.04 | Cn1ncc(C(=O)N2CCC2)c1C(=O)N[C@@H]1CCn2cc(-c3ccccc3OC(F)F)nc2C1 [Roche-Dataset for PDE10A, Compound 257] |
| 3120 | CCN(CC)C(=O)c1c(C)noc1C(=O)Nc1ccn2nc(-c3ccccc3)nc2c1 [Roche-Dataset for PDE10A, Compound 258] |
| 1540 | Cc1[nH]c(-c2cccnc2)nc1CCN1C(=O)c2ccccc2C1=O [Roche-Dataset for PDE10A, Compound 260] |
| 4.54 | Cn1ncc(C(=O)N2CCC2)c1C(=O)N[C@@H]1CCn2cc(-c3ccc(F)cc3)nc2C1 [Roche-Dataset for PDE10A, Compound 261] |
| 183 | CCOC(=O)c1cnn(C)c1C(=O)Nc1ccn2nc(-c3cccnc3F)nc2c1 [Roche-Dataset for PDE10A, Compound 264] |
| 0.6 | CCOc1cc(Cl)c(C)n2nc(CCc3nc(N4CCCC4)nn3C)nc12 [Roche-Dataset for PDE10A, Compound 266] |
| 34 | CCOC(=O)c1cnn(C)c1C(=O)Nc1ccn2nc(-c3cccnc3)nc2c1 [Roche-Dataset for PDE10A, Compound 268] |
| 4.54 | Cc1ncc(C)n2nc(CCc3nc(N4CCC[C@@H]4C)nn3C)nc12 [Roche-Dataset for PDE10A, Compound 269] |
| 48 | O=C(NCCc1noc(-c2ccccc2)n1)c1nc(C2CC2)cnc1Nc1cncnc1 [Roche-Dataset for PDE10A, Compound 271] |
| 6160 | CNC(=O)c1cc(Cl)c(C)n2nc(CCc3nc(N4CCCC4)nn3C)nc12 [Roche-Dataset for PDE10A, Compound 273] |
| 19 | Cc1cnc(C)n2nc(/C=C/c3nc(N4CCCC4)nn3C3CC3)nc12 [Roche-Dataset for PDE10A, Compound 274] |
| 137 | O=C(NCCc1noc(Cc2ccccc2)n1)c1nc(C2CC2)cnc1Nc1cncnc1 [Roche-Dataset for PDE10A, Compound 275] |
| 20 | CN(CCO)C(=O)c1cnn(C)c1C(=O)Nc1ccn2nc(N3CCOCC3)nc2c1 [Roche-Dataset for PDE10A, Compound 276] |
| 13 | COc1ccccc1-c1cn2c(n1)C[C@H](NC(=O)c1c(C(=O)N(C)C3CC3)cnn1C)CC2 [Roche-Dataset for PDE10A, Compound 278] |
| 790 | CCOC(=O)c1cnn(C)c1C(=O)Nc1ccn2nc(-c3ccnc(F)c3)nc2c1 [Roche-Dataset for PDE10A, Compound 280] |
| 1.16 | Cn1ncc(C(=O)N2CCC2)c1C(=O)Nc1ccn2nc(-c3cccnc3)nc2c1 [Roche-Dataset for PDE10A, Compound 281] |

| IC50 [nM] | Compound |
| --- | --- |
| 75 | Cc1cc(NC(=O)c2ccc3cc(-c4ccccc4)nn3c2)cc(C)n1 [Roche-Dataset for PDE10A, Compound 286] |
| 52 | Cn1ncc(CO)c1C(=O)Nc1ccn2nc(-c3ccccc3)nc2c1 [Roche-Dataset for PDE10A, Compound 287] |
| 307 | Cn1cc(-c2ccccc2)nc1CCc1cncc(-c2ccn[nH]2)n1 [Roche-Dataset for PDE10A, Compound 289] |
| 337 | CNC(=O)c1c(-c2nc(CCc3nc4c(C)ncc(C)n4n3)n(C)n2)cnn1C [Roche-Dataset for PDE10A, Compound 290] |
| 5910 | O=C1c2ccccc2C(=O)N1CCc1csc(-c2cccnc2)n1 [Roche-Dataset for PDE10A, Compound 292] |
| 9.16 | Cc1nc(C)n2nc(/C=C/c3nc(N4CCCC4)nn3C)nc2c1C [Roche-Dataset for PDE10A, Compound 293] |
| 6500 | Cn1cc(-c2cccc(CCc3nc(-c4ccccc4)cn3C)n2)cn1 [Roche-Dataset for PDE10A, Compound 296] |
| 134 | Cn1cc(-c2ccccc2)nc1COc1ncc(Cl)nc1C(=O)NCc1ccccc1 [Roche-Dataset for PDE10A, Compound 297] |
| 88 | Cn1cc(-c2ccccc2)nc1CCNC(=O)c1cccn2c(C(F)(F)F)nnc12 [Roche-Dataset for PDE10A, Compound 298] |
| 503 | O=C1c2ccccc2C(=O)N1CCc1cnc(-c2ccccc2)[nH]1 [Roche-Dataset for PDE10A, Compound 299] |
| 0.33 | Cc1cc(Cl)c(C)n2nc(/C=C/c3nc(N4CCCC4)nn3C)nc12 [Roche-Dataset for PDE10A, Compound 300] |
| 181 | Cn1ncc(C(=O)NC2COC2)c1C(=O)N[C@@H]1CCn2cc(-c3ccccc3)nc2C1 [Roche-Dataset for PDE10A, Compound 302] |
| 7.17 | COCCNC(=O)c1cc2[nH]c(-c3ccccc3)nc2cc1NC(=O)c1cc(Br)c[nH]c1=O [Roche-Dataset for PDE10A, Compound 303] |
| 0.79 | COCCN(C)C(=O)c1cnn(C)c1C(=O)Nc1cc2nc(-c3ccccc3)nn2cn1 [Roche-Dataset for PDE10A, Compound 304] |
| 35 | COCCNC(=O)c1cc2[nH]c(-c3ccccc3)nc2cc1NC(=O)c1ccnnc1 [Roche-Dataset for PDE10A, Compound 306] |
| 371 | O=C1c2ccccc2CN1c1ccc2nc(-c3ccccc3)[nH]c2c1 [Roche-Dataset for PDE10A, Compound 307] |
| 48 | Cc1c(Cl)nn2c(C)c(/C=C/c3nc(N4CCCC4)nn3C)nc2c1C [Roche-Dataset for PDE10A, Compound 309] |
| 37 | O=C(Nc1ccnc(Cl)c1)c1ccc2cc(-c3ccccc3)nn2c1 [Roche-Dataset for PDE10A, Compound 310] |
| 1550 | Cc1ncc(C)n2nc(/C=C/c3nc(N4CCNCC4)nn3C)nc12 [Roche-Dataset for PDE10A, Compound 311] |
| 269 | Cn1cc(-c2ccccc2)nc1COc1cc(N2CCOCC2)nc(-c2cccnc2)n1 [Roche-Dataset for PDE10A, Compound 312] |
| 5.67 | CCN(C)C(=O)c1cnn(C)c1C(=O)Nc1ccn2nc(N3CCOCC3)nc2c1 [Roche-Dataset for PDE10A, Compound 315] |
| 19 | CN(C)C(=O)c1cnn(C)c1C(=O)N[C@@H]1CCn2cc(-c3ccccc3OC(F)F)nc2C1 [Roche-Dataset for PDE10A, Compound 317] |
| 40 | CN(C)C(=O)c1cnn(C)c1C(=O)Nc1ccn2cc(-c3cccc(Br)c3)nc2n1 [Roche-Dataset for PDE10A, Compound 319] |
